From paper PMC5839718 (The Journal of General Physiology, 2018)
Several values for one entry are separate records, joined by “and”; a condition that tells them apart may be missing. Equal entries are not always repeated. Entries after “also recorded” stand apart in the source; their conditions may differ. Where two headings read alike, the source gives them in different places. Values belong to the molecule of their own block, whether it stands above or below them.

Columns and labels:
Type in all cases: cell-based
[1] = biological target: α4β2 nAChR from β-21a-α-β-α-α (Homo sapiens, UniProt P17787+P43681); test: two-electrode voltage-clamp, oocytes, pentameric β-21a-α-β-α-α
[2] = biological target: α4β2 nAChR from β-3a-α^VFL-β-α-α (Homo sapiens, UniProt P17787+P43681, H142V/Q150F/T152L); test: two-electrode voltage-clamp, oocytes, pentameric β-3a-α^VFL-β-α-α
[3] = biological target: α4β2 nAChR from β-6-α-9-β-6-α and α4^VFL (1:1) (Homo sapiens, UniProt P17787+P43681, H142V/Q150F/T152L); test: two-electrode voltage-clamp, oocytes, β-6-α-9-β-6-α and α4^VFL 1:1
[4] = biological target: α4β2 nAChR from β-6-α and α4^VFL (1:1) (Homo sapiens, UniProt P17787+P43681, H142V/Q150F/T152L); test: two-electrode voltage-clamp, oocytes, β-6-α and α4^VFL 1:1; settings: β-6-α + α4^VFL 1:1
[5] = biological target: α4β2 nAChR from β-6-α-9-β-6-α and α4^VFL (1:5) (Homo sapiens, UniProt P17787+P43681, H142V/Q150F/T152L); test: two-electrode voltage-clamp, oocytes, β-6-α-9-β-6-α and α4^VFL 1:5
[6] = biological target: (α4^VFL)3(β2)2 nAChR from α4^VFL and β2 (10:1) (Homo sapiens, UniProt P17787+P43681, H142V/Q150F/T152L); test: two-electrode voltage-clamp, X. laevis oocytes, α4^VFL and β2 cRNA 10:1
[7] = biological target: α4β2 nAChR from β-6a-α and α4^VFL (1:1) (Homo sapiens, UniProt P17787+P43681, H142V/Q150F/T152L); test: two-electrode voltage-clamp, oocytes, β-6a-α and α4^VFL
[8] = biological target: α4β2 nAChR from β-6-α-9-β-6-α alone (Homo sapiens, UniProt P17787+P43681); test: two-electrode voltage-clamp, oocytes, tetrameric β-6-α-9-β-6-α alone
[9] = biological target: α4β2 nAChR from β-6a-α alone (Homo sapiens, UniProt P17787+P43681); test: two-electrode voltage-clamp, oocytes, β-6a-α alone
[10] = biological target: α4β2 nAChR from β-21a-α-α-β-α (Homo sapiens, UniProt P17787+P43681); test: two-electrode voltage-clamp, oocytes, pentameric β-21a-α-α-β-α
[11] = biological target: α4β2 nAChR from concatenated β-6-α alone (Homo sapiens, UniProt P17787+P43681); test: two-electrode voltage-clamp, oocytes, β-6-α alone
[12] = biological target: α4β2 nAChR from β-3a-α-β-α-α (Homo sapiens, UniProt P17787+P43681); test: two-electrode voltage-clamp, oocytes, pentameric β-3a-α-β-α-α
[13] = biological target: α4β2 nAChR from β-21a-α-α^VFL-β-α (Homo sapiens, UniProt P17787+P43681, H142V/Q150F/T152L); test: two-electrode voltage-clamp, oocytes, pentameric β-21a-α-α^VFL-β-α
[14] = biological target: α4β2 nAChR from β-3a-α and α4^VFL (1:1) (Homo sapiens, UniProt P17787+P43681, H142V/Q150F/T152L); test: two-electrode voltage-clamp, oocytes, β-3a-α and α4^VFL
[15] = biological target: (α4)3(β2)2 nAChR from α4 and β2 (10:1) (Homo sapiens, UniProt P17787+P43681); test: two-electrode voltage-clamp, X. laevis oocytes, α4 and β2 cRNA 10:1
[16] = biological target: α4β2 nAChR from β-21a-α-β-α-α^VFL (Homo sapiens, UniProt P17787+P43681, H142V/Q150F/T152L); test: two-electrode voltage-clamp, oocytes, pentameric β-21a-α-β-α-α^VFL
[17] = biological target: α4β2 nAChR from β-3a-α^VFL-α-β-α (Homo sapiens, UniProt P17787+P43681, H142V/Q150F/T152L); test: two-electrode voltage-clamp, oocytes, pentameric β-3a-α^VFL-α-β-α
[18] = biological target: α4β2 nAChR from β-6-α and α4 (1:1) (Homo sapiens, UniProt P17787+P43681); test: two-electrode voltage-clamp, oocytes, β-6-α and α4; settings: β-6-α + α4
[19] = biological target: α4β2 nAChR from β-3a-α-β-α-α^VFL (Homo sapiens, UniProt P17787+P43681, H142V/Q150F/T152L); test: two-electrode voltage-clamp, oocytes, pentameric β-3a-α-β-α-α^VFL
[20] = biological target: α4β2 nAChR from β-9a-α alone (Homo sapiens, UniProt P17787+P43681); test: two-electrode voltage-clamp, oocytes, β-9a-α alone
[21] = biological target: α4β2 nAChR from β-21a-α^VFL-α-β-α (Homo sapiens, UniProt P17787+P43681, H142V/Q150F/T152L); test: two-electrode voltage-clamp, oocytes, pentameric β-21a-α^VFL-α-β-α
[22] = […] NS9283 + 10 µM ACh, % change from AChcontrol current

Chain of α4β2 nAChR from β-6-α-9-β-6-α alone (P43681 27-627): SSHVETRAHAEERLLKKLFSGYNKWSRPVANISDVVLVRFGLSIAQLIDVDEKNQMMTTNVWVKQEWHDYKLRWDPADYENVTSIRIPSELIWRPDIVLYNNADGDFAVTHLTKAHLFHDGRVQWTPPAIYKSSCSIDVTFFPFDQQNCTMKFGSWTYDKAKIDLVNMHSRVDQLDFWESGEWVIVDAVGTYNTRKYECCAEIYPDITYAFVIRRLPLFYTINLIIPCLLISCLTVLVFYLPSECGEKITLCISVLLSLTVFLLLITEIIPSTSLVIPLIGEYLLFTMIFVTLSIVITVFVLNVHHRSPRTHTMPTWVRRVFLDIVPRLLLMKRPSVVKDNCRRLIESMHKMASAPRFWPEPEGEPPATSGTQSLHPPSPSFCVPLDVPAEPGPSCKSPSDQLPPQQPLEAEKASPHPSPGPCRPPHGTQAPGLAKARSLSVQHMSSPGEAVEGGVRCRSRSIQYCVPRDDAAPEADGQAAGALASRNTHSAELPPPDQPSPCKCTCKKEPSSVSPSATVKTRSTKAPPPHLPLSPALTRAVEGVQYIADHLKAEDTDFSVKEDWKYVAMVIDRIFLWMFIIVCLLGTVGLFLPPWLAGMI
Chain of α4β2 nAChR from β-6-α-9-β-6-α alone (P17787 26-502): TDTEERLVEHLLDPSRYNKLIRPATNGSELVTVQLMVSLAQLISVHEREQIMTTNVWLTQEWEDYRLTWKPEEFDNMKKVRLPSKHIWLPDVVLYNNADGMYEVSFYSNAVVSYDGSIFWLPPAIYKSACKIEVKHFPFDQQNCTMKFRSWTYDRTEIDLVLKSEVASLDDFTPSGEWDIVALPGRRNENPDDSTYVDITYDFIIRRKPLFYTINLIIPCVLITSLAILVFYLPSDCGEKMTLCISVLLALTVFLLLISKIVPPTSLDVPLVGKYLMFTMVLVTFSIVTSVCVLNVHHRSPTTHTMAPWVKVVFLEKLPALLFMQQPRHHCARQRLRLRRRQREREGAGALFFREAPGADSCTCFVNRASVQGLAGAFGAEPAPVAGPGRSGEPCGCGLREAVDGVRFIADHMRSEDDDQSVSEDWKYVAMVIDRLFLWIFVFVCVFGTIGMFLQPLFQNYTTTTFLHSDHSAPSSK
Chain of (α4)3(β2)2 nAChR from α4 and β2 (10:1) (P43681 27-627): as the sequence (P43681 27-627) above
Chain of (α4)3(β2)2 nAChR from α4 and β2 (10:1) (P17787 26-502): as the sequence (P17787 26-502) above
Chain of α4β2 nAChR from β-3a-α^VFL-α-β-α (P17787 26-502): as above
Chain of α4β2 nAChR from β-3a-α^VFL-α-β-α (P43681 27-627 H142V/Q150F/T152L): as the sequence (P43681 27-627) above, with H116V, Q124F, T126L counted along it
Chain of α4β2 nAChR from β-3a-α^VFL-α-β-α (P43681 27-627, stated change not applied): as the sequence (P43681 27-627) above
Chain of α4β2 nAChR from β-3a-α^VFL-α-β-α (P17787 26-502): as the sequence (P17787 26-502) above
Chain of α4β2 nAChR from β-3a-α^VFL-α-β-α (P43681 27-627, stated change not applied): as the sequence (P43681 27-627) above

EC50 [1]: 7.94 µM
EC50 ([2]; NS9283 pEC50, β-3a-α^VFL-β-α-α, coapplied with 10 µM ACh): 6.31 µM
Emax ([2]; read-out: NS9283 Emax): 240 ± 20%
EC50 ([3]; NS9283 pEC50, β-6-α-9-β-6-α + α4^VFL 1:1, coapplied with 10 µM ACh): 10 µM
NS9283 E31.6 µM [4, 22]: 210 ± 20%
EC50 ([5]; NS9283 pEC50, β-6-α-9-β-6-α + α4^VFL 1:5, coapplied with 10 µM ACh): 7.94 µM
EC50 ([7]; NS9283 pEC50, β-6a-α + α4^VFL, coapplied with 10 µM ACh): 10 µM
NS9283 E31.6 µM ([7]; β-6a-α + α4^VFL, […] NS9283 + 10 µM ACh, % change from AChcontrol current): 140 ± 10%
EC50 [8]: 10 µM
Emax ([8]; read-out: NS9283 Emax): 220 ± 30%
NS9283 E31.6 µM ([8]; β-6-α-9-β-6-α alone, […] NS9283 + 10 µM ACh, % change from AChcontrol current): 170 ± 20%
EC50 [9]: 3.98 µM
Emax ([9]; read-out: NS9283 Emax): 51 ± 7%
EC50 [10]: 5.01 µM
Emax ([10]; read-out: NS9283 Emax): 910 ± 70%
NS9283 E31.6 µM ([10]; β-21a-α-α-β-α, […] NS9283 + 10 µM ACh, % change from AChcontrol current): 780 ± 90%
EC50 [11]: 12.6 µM
Emax ([11]; read-out: NS9283 Emax): 900 ± 140%
NS9283 E31.6 µM ([11]; β-6-α alone, […] NS9283 + 10 µM ACh, % change from AChcontrol current): 640 ± 90%
EC50 [12]: 7.94 µM
Emax ([12]; read-out: NS9283 Emax): 800 ± 90%
NS9283 E31.6 µM ([12]; β-3a-α-β-α-α, […] NS9283 + 10 µM ACh, % change from AChcontrol current): 640 ± 90%
EC50 ([13]; NS9283 pEC50, β-21a-α-α^VFL-β-α, coapplied with 10 µM ACh): 10 µM
Emax ([13]; read-out: NS9283 Emax): 75 ± 9%
NS9283 E31.6 µM ([13]; β-21a-α-α^VFL-β-α, […] NS9283 + 10 µM ACh, % change from AChcontrol current): 55 ± 6%
EC50 ([14]; NS9283 pEC50, β-3a-α + α4^VFL, coapplied with 10 µM ACh): 6.31 µM
NS9283 E31.6 µM ([14]; β-3a-α + α4^VFL, […] NS9283 + 10 µM ACh, % change from AChcontrol current): 22 ± 3%
EC50 [15]: 5.01 µM
Emax ([15]; read-out: NS9283 Emax): 860 ± 60%
EC50 [16]: 5.01 µM
Emax ([16]; read-out: NS9283 Emax): 48 ± 5%
NS9283 E31.6 µM ([16]; β-21a-α-β-α-α^VFL, […] NS9283 + 10 µM ACh, % change from AChcontrol current): 41 ± 4%
EC50 ([17]; NS9283 pEC50, β-3a-α^VFL-α-β-α, coapplied with 10 µM ACh): 7.94 µM
Emax ([17]; read-out: NS9283 Emax): 340 ± 20%
NS9283 E31.6 µM ([17]; β-3a-α^VFL-α-β-α, […] NS9283 + 10 µM ACh, % change from AChcontrol current): 270 ± 10%
NS9283 E31.6 µM [18, 22]: 860 ± 100%
Emax ([19]; read-out: NS9283 Emax): 13 ± 1%
NS9283 E31.6 µM ([19]; β-3a-α-β-α-α^VFL, […] NS9283 + 10 µM ACh, % change from AChcontrol current): 11 ± 2%
EC50 [20]: 10 µM
Emax ([20]; read-out: NS9283 Emax): 130 ± 30%
NS9283 E31.6 µM ([20]; β-9a-α alone, […] NS9283 + 10 µM ACh, % change from AChcontrol current): 100 ± 20%
EC50 [21]: 6.31 µM
Emax ([21]; read-out: NS9283 Emax): 102 ± 10%
NS9283 E31.6 µM ([21]; β-21a-α^VFL-α-β-α, […] NS9283 + 10 µM ACh, % change from AChcontrol current): 85 ± 10%
SMILES: N#Cc1cccc(-c2nc(-c3cccnc3)no2)c1 [NS9283, 3-(3-(pyridine-3-yl)-1,2,4-oxadiazol-5-yl)benzonitrile]
NS9283 Emax ([6]; α4^VFL+β2 10:1, coapplied with 10 µM ACh): no positive efficacy; also recorded: No pos. pot

Emax ([1]; read-out: ACh Emax): 101 ± 1%
mean AChmax-evoked currents ([1]; β-21a-α-β-α-α): ~2 μA
ACh Frac (first component fraction) ([1]; β-21a-α-β-α-α, biphasic fit): 0.060 ± 0.011
Emax ([2]; read-out: ACh Emax): 105 ± 1%
ACh Frac (first component fraction) ([2]; β-3a-α^VFL-β-α-α, biphasic fit): 0.39 ± 0.05
ACh Frac (first component fraction) ([3]; β-6-α-9-β-6-α + α4^VFL 1:1, biphasic fit): 0.41 ± 0.09
ACh Frac (first component fraction) ([4]; biphasic fit): 0.40 ± 0.08
ACh Frac (first component fraction) ([5]; β-6-α-9-β-6-α + α4^VFL 1:5, biphasic fit): 0.32 ± 0.13
Emax ([6]; read-out: ACh Emax): 104 ± 2%
ACh Frac (first component fraction) ([6]; α4^VFL+β2 10:1, biphasic fit): 0.71 ± 0.12
ACh Frac (first component fraction) ([7]; β-6a-α + α4^VFL, biphasic fit): 0.31 ± 0.14
Emax ([8]; read-out: ACh Emax): 109 ± 5%
ACh Frac (first component fraction) ([8]; β-6-α-9-β-6-α alone, biphasic fit): 0.45 and 0.45 ± 0.07
Emax ([9]; read-out: ACh Emax): 103 ± 2%
ACh Frac (first component fraction) ([9]; β-6a-α alone, biphasic fit): 0.70 ± 0.12
Emax ([10]; read-out: ACh Emax): 100 ± 2%
ACh Frac (first component fraction) ([10]; β-21a-α-α-β-α, biphasic fit): 0.060 ± 0.025
Emax ([11]; read-out: ACh Emax): 102 ± 2%
ACh Frac (first component fraction) ([11]; β-6-α alone, biphasic fit): 0.11 and 0.11 ± 0.02
Emax ([12]; read-out: ACh Emax): 102 ± 1%
ACh Frac (first component fraction) ([12]; β-3a-α-β-α-α, biphasic fit): 0.11 ± 0.02
Emax ([13]; read-out: ACh Emax): 102 ± 2%
ACh Frac (first component fraction) ([13]; β-21a-α-α^VFL-β-α, biphasic fit): 0.46 ± 0.18
ACh Frac (first component fraction) ([14]; β-3a-α + α4^VFL, biphasic fit): 0.41 ± 0.06
Emax ([15]; read-out: ACh Emax): 102 ± 1%
ACh Frac (first component fraction) ([15]; α4+β2 10:1, biphasic fit): 0.11 ± 0.03
Emax ([16]; read-out: ACh Emax): 105 ± 1%
ACh Frac (first component fraction) ([16]; β-21a-α-β-α-α^VFL, biphasic fit): 0.59 ± 0.07
Emax ([17]; read-out: ACh Emax): 105 ± 4%
ACh Frac (first component fraction) ([17]; β-3a-α^VFL-α-β-α, biphasic fit): 0.28 ± 0.10
ACh Frac (first component fraction) ([18]; biphasic fit): 0.073 ± 0.038
Emax ([19]; read-out: ACh Emax): 104 ± 1%
ACh Frac (first component fraction) ([19]; β-3a-α-β-α-α^VFL, biphasic fit): 0.53 ± 0.08
Emax ([20]; read-out: ACh Emax): 105 ± 3%
ACh Frac (first component fraction) ([20]; β-9a-α alone, biphasic fit): 0.28 and 0.28 ± 0.05
Emax ([21]; read-out: ACh Emax): 104 ± 1%
ACh Frac (first component fraction) ([21]; β-21a-α^VFL-α-β-α, biphasic fit): 0.44 ± 0.1
SMILES: CC(=O)OCC[N+](C)(C)C [ACh, acetylcholine]
